Source: US12351574B2, “Selective ligands for modulation of GIRK channels” (Northeastern University, priority 2018, dated 2025)

Target: T1, GIRK1/2 (UniProt P48542+P48549)
T1 sequence (P48549 1-501): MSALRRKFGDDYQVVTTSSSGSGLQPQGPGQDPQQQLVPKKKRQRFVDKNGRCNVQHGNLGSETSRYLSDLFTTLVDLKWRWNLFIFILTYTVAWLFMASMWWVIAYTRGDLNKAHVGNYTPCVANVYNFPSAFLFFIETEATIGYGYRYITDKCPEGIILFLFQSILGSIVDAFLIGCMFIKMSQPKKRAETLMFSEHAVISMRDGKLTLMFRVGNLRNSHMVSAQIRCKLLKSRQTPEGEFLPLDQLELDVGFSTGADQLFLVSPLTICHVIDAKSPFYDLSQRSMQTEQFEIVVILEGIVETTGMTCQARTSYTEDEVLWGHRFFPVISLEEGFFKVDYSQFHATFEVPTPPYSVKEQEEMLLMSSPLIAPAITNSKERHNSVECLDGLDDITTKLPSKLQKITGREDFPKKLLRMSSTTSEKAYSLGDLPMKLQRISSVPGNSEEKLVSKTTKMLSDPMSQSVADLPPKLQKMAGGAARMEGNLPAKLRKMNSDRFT
T1 sequence (P48542 1-425): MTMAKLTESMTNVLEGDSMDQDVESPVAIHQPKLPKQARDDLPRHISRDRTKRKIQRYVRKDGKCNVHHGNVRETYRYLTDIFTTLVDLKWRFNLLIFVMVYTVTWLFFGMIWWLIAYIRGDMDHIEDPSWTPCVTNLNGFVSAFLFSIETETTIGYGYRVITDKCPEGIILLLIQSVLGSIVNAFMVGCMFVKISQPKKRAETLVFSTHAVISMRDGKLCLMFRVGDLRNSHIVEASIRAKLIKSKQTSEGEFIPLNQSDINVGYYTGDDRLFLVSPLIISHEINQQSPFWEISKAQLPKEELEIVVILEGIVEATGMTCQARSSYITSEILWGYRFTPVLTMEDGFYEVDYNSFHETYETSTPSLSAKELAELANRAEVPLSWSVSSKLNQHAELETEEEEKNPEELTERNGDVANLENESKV
Experiment: concentration-response, whole-cell patch clamp in HEK-293 cells expressing GIRK1/2
Type: cell-based, human GIRK1, mouse GIRK2
Design: expressed in transfected cells
Conditions: FIGS. 5A-5C
Procedure: Culture of HEK293 cells: HEK293-T cells were obtained from ATCC and maintained in DMEM medium supplemented with 10% FBS and 1% penicillin and streptomycin (Hyclone). For patch-clamp studies, cells were seeded on glass coverslips and transfected 24-hours later using a polyethylenimine solution (1 mg/ml) at a ratio of 8 μl per μg of DNA. To study GIRK-currents, cells were transfected with 0.75 μg each of plasmids encoding GIRK1, GIRK2 or GIRK4 as indicated. In the optogenetic experiments, cells were co-transfected with plasmids encoding 5-ptaseOCRL and CIBN-CAAX, as previously described. 5-ptaseOCRL and CIBN-CAAX were a kind gift from the DeCamilli lab, Yale CT. All experiments were performed at room temperature 24-36 hours post transfection.
Patch-clamp recording: Whole-cell currents were recorded with an Axopatch 200B amplifier (Molecular Devices) controlled via a USB-interface (National Instruments) using WinWCP software (University of Strathclyde). […] The barium-sensitive component of the current, observed when cells were perfused with the high-K^+ buffer, was analyzed and was determined by perfusing 5 mM BaCl2 in the high-K^+ buffer at the end of each experiment. […]
Patch-clamp recording: Whole-cell currents were recorded with an Axopatch 200B amplifier (Molecular Devices) controlled via a USB-interface (National Instruments) using WinWCP software (University of Strathclyde). […]

potency and efficacy compared to ML297 or GAT1521 (in words): highest potency and efficacy
SMILES: Cc1cc(NC(=O)Nc2ccc(Br)s2)n(-c2ccccc2)n1 [GAT1508, 1-(5-bromothiophen-2-yl)-3-(3-methyl-1-phenyl-1H-pyrazol-5-yl)urea]
